A short description of the series: Single dose intravenous PK study in male Sprague Dawley rats (plasma by LC-MS/MS). Conditions: for AUC(0-inf) / AUC(0-t) / C0 / clearance / Cmax / MRT last / half-life / Vd / Tmax / AUC: male, rat; for AUC(0-inf) / AUC(0-t) / C0 / clearance / Cmax / MRT last / half-life / Vd: iv; for AUC: read-out: IV PK Parameters AUC, Prodrug. It is filed as in vivo. How it is done:
We describe here PK results of prodrugs of PRX-002 (−) or (+) isomers. All doses of prodrugs were administered such that they were equivalent to 5 mg/kg of PRX-002 (−) or (+) for oral studies and 2 mg/kg PRX-002 (−) or (+) for intravenous studies in male Sprague-Dawley (MSD) rats. Higher doses of up to 10 or 15 mg/kg [again equivalent to PRX-002 (−)] were used in some studies (as specified)]. Formulation preparation, dose administration and time of sample collection was as follows.
(§1) Adult male Sprague Dawley Rats aged 8-10 weeks were used for the study. Animals were administered the test item by Intravenous bolus route with a dose of 2 mg/kg body weight at dose volume of 5.0 mL/kg body weight. Under mild isoflurane anesthesia, blood specimens were collected by retro-orbital puncture method using capillary tubes into pre-labeled tubes containing anticoagulant (K2EDTA-2 mg/mL blood) during the next 24 hours of post dose as mentioned in below table. For blood sampling at multiple time points, right and left eyes were used alternatively for blood collection. Collected blood specimens were centrifuged at 4000 rpm, 4° C. for 10 minutes and plasma were separated and stored at −80° C. until analysis.
Blood was collected as outlined in Table 39.2 (IV).
Test item PRX-P4-003 was weighed and transferred to a graduated tube. Then 600 μL of PEG 400 (v/v) was added and vortex mixed thoroughly until the test item was completely dissolved. Then 1.800 mL of Hydroxypropyl-β-cyclodextrin (HPβCD, 50% w/v) was added and vortex mixed thoroughly. The final volume was then made up to 3.600 mL with sterile water for injection (SWFI, v/v) with final formulation strength of 5.16 mgA/mL. […] This formulation was freshly prepared before the administration to animals.
as §1, with “administered with a PRX-P4-003” for “administered the test item”, “of 10” for “of 2”, “of 5” for “of 5.0”
Test item PRX-P5-006 was weighed and transferred to a graduated tube. Then 500 μL of DMSO (v/v) was added vortex mixed thoroughly until the test item was completely dissolved. Then 4000 μL of Hydroxypropyl-β-cyclodextrin (HPβCD, 50% w/v) was added and vortex mixed thoroughly. Then 2500 μL of PEG 400 (v/v) was added and vortex mixed thoroughly. The final volume was then made up to 10000 μL with sterile water for injection (SWFI, v/v) with final formulation strength of 3.97 mg/mL. […] This formulation was freshly prepared before the administration to animals.
as §1, with “administered with a PRX-P5-006” for “administered the test item”, “of 15” for “of 2”, “of 10” for “of 5.0”
The plasma concentrations of fencamfamine were measured by LC-MS/MS over time. […] The release of fencamfamine from the prodrugs varied depending on the chain length of the fatty acid linkers attached to fencamfamine. […]

[1] abbreviates: PRX-P5-006 IV 2 mg/kg b.w., individual animals, 2 mg/kg.
[2] abbreviates: PRX-P5-006 IV 2 mg/kg, mean, 2 mg/kg.

Experimental findings from patent publication US10662146B2, “Prodrugs of fencamfamine” (Praxis Bioresearch, LLC, priority 2015, dated 2020) are described below.

The structures appear in SMILES notation. Several values for one entry are separate records, joined by “and”; a condition that tells them apart may be missing. Identical values can stand only once. Like-named read-outs stand apart in the source and are kept apart here.

On to `CCN[C@H]1[C@H]2CC[C@H](C2)[C@@H]1c1ccccc1` [PRX-002 (+) Isomer, (1S,2S,3R,4R)—N-Ethyl-3-phenylbicyclo[2.2.1]heptan-2-amine, reference compound], for which the AUC(0-inf) (Sprague Dawley, plasma, 2 mg/kg, single IV dose 2 mg/kg b.w., mean plasma PK parameters (Table 39.27), read-out: AUCinf) is 268 ± 23.5 ng·h/mL. Further, where the note is “Sprague Dawley, plasma, 2 mg/kg, single IV dose 2 mg/kg b.w., mean plasma PK parameters (Table 39.27), read-out: AUClast”, the AUC(0-t) stood at 250 ± 15.2 ng·h/mL. Moreover, the C0 (Sprague Dawley, plasma, 2 mg/kg, single IV dose 2 mg/kg b.w., mean plasma PK parameters (Table 39.27), read-out: C0) was 291 ± 61.8 ng/mL. For the same compound, the clearance (Sprague Dawley, plasma, 2 mg/kg, single IV dose 2 mg/kg b.w., mean plasma PK parameters (Table 39.27), read-out: CL) is 125 ± 10.6 mL/min/kg. Besides, the Cmax (commonly the maximum level reached in the sampled fluid or tissue) (Sprague Dawley, plasma, 2 mg/kg, single IV dose 2 mg/kg b.w., mean plasma PK parameters (Table 39.27), read-out: Cmax) was 234 ± 37.9 ng/mL. The MRT last (Sprague Dawley, plasma, 2 mg/kg, single IV dose 2 mg/kg b.w., mean plasma PK parameters (Table 39.27), read-out: MRTlast) was determined as 1.05 ± 0.071 h. Where the note is “Sprague Dawley, plasma, 2 mg/kg, single IV dose 2 mg/kg b.w., mean plasma PK parameters (Table 39.27), read-out: T1/2 (converted)”, the half-life was 1.08 ± 0.152 h. Also, for the setting “Sprague Dawley, plasma, 2 mg/kg, single IV dose 2 mg/kg b.w., mean plasma PK parameters (Table 39.27), read-out: Vss”, the Vd stood at 10.1 ± 0.51 L/kg. Moreover, the Tmax (commonly the time from dosing to the highest level) (Sprague Dawley, single IV dose 2 mg/kg b.w., mean plasma PK parameters (Table 39.27), read-out: Tmax) is 4.8 min. Further, where the note is “single IV dose 2 mg/kg b.w., mean plasma PK parameters (Table 39.27)”, the AUCextrap was 6.639 ± 2.427%.
Regarding `CCCCCCCCCCCCCCCCCC(=O)OC(C)OC(=O)N(CC)C1C2CCC(C2)C1c1ccccc1` (single isomer, unassigned) [PRX-P5-006, N-(1-Octadecanoyloxyethoxycarbonyl)-(−)-N-ethyl-3-phenylbicyclo[2.2.1]heptan-2-amine], the “AUC% extrap of PRX-P5-006” value runs as follows: under setting [1], 5.16% and 3.49% and 11.16%; under setting [2], 6.602 ± 4.0330% and 6.602%. Under setting [1], the “AUCinf of PRX-P5-006” value was 3977.39 ng·h/mL and 4119.23 ng·h/mL. Moreover, the “AUClast of PRX-P5-006” value under setting [1] is 3838.58 ng·h/mL and 3659.58 ng·h/mL. In addition, the “C0 of PRX-P5-006” value under setting [1] was 32467.12 ng/mL and 21202.31 ng/mL. Also, the “CL of PRX-P5-006” value under setting [1] was 8.38 mL/min/kg and 8.09 mL/min/kg. Also, the “Cmax of PRX-P5-006” value under setting [1] was 8662.3 ng/mL and 7404.71 ng/mL. In addition, the “MRTlast of PRX-P5-006” value under setting [1] is 2.7 h and 0.93 h and 3.31 h. The “T1/2 of PRX-P5-006” value was 7.54 h and 2.06 h and 9.32 h under setting [1]; 6.304 h under setting [2]. In addition, the “Vss of PRX-P5-006” value under setting [1] is 1.56 L/kg and 0.61 L/kg and 3.46 L/kg. Moreover, under “PRX-P5-006 administered IV (FIGS. 5A, 5B)”, the “Level of intact PRX-P5-006 in plasma, IV versus oral” value is reported as “Much higher level of intact PRX-P5-006”. Further, the highest concentration (Cmax) is, setting by setting: (Sprague Dawley, plasma, 2 mg/kg, IV 2 mg/kg [equivalent to PRX-002 (−)], analyte: prodrug in plasma, mean, read-out: IV PK Parameters Cmax, Prodrug) 707 ± 500 ng/mL; (Sprague Dawley, plasma, 15 mg/kg, IV 15 mg/kg (footnote *), analyte: prodrug in plasma, mean, read-out: IV PK Parameters Cmax, Prodrug) 16400 ± 7100 ng/mL; (Sprague-Dawley, plasma, 2 mg/kg, PRX-P5-006 IV 2 mg/kg b.w., individual animals, read-out: Cmax of PRX-P5-006) 11200 ng/mL; (Sprague-Dawley, plasma, 2 mg/kg, PRX-P5-006 IV 2 mg/kg, mean, read-out: Cmax of PRX-P5-006) 9100 ± 1950 ng/mL. For the same compound, the AUC(0-inf) (Sprague Dawley, plasma, 2 mg/kg, PRX-P5-006 IV 2 mg/kg, mean, read-out: AUCinf of PRX-P5-006) was determined as 4560 ± 894 ng·h/mL and the AUC(0-inf) (Sprague-Dawley, plasma, 2 mg/kg, PRX-P5-006 IV 2 mg/kg b.w., individual animals, read-out: AUCinf of PRX-P5-006) stood at 5590 ng·h/mL. Further, the AUC(0-t) was found to be 4270 ± 902 ng·h/mL (Sprague Dawley, plasma, 2 mg/kg, PRX-P5-006 IV 2 mg/kg, mean, read-out: AUClast of PRX-P5-006) and 5300 ng·h/mL (Sprague-Dawley, plasma, 2 mg/kg, PRX-P5-006 IV 2 mg/kg b.w., individual animals, read-out: AUClast of PRX-P5-006). Besides, the clearance was 7.48 ± 1.32 mL/min/kg (Sprague Dawley, plasma, 2 mg/kg, PRX-P5-006 IV 2 mg/kg, mean, read-out: CL of PRX-P5-006) and 5.96 mL/min/kg (Sprague-Dawley, plasma, 2 mg/kg, PRX-P5-006 IV 2 mg/kg b.w., individual animals, read-out: CL of PRX-P5-006). Also, the Vd (Sprague Dawley, plasma, 2 mg/kg, PRX-P5-006 IV 2 mg/kg, mean, read-out: Vss of PRX-P5-006) was 1.88 ± 1.45 L/kg. Further, the AUC – broadly, concentration integrated over time – by setting is: (Sprague Dawley, IV 2 mg/kg [equivalent to PRX-002 (−)], analyte: prodrug in plasma, mean) 410 ± 301 ng·h/mL; (Sprague Dawley, IV 15 mg/kg (footnote *), analyte: prodrug in plasma, mean) 8060 ± 1760 ng·h/mL. For the same compound, the time to peak (Tmax) (Sprague Dawley, IV 2 mg/kg [equivalent to PRX-002 (−)], analyte: prodrug in plasma, mean, read-out: IV PK Parameters Tmax, Prodrug) worked out at 4.8 min; the time to peak (Tmax) (Sprague Dawley, IV 15 mg/kg (footnote *), analyte: prodrug in plasma, mean, read-out: IV PK Parameters Tmax, Prodrug) came to 4.8 min; the Tmax (Sprague-Dawley, plasma, PRX-P5-006 IV 2 mg/kg, mean, read-out: Tmax of PRX-P5-006) is 4.8 min. Besides, the C0 (Sprague-Dawley, plasma, 2 mg/kg, PRX-P5-006 IV 2 mg/kg b.w., individual animals, read-out: C0 of PRX-P5-006) worked out at 36200 ng/mL and the C0 (Sprague-Dawley, plasma, 2 mg/kg, PRX-P5-006 IV 2 mg/kg, mean, read-out: C0 of PRX-P5-006) is 30000 ng/mL. Further, for the setting “Sprague-Dawley, plasma, 2 mg/kg, PRX-P5-006 IV 2 mg/kg, mean, read-out: MRTlast of PRX-P5-006”, the MRT last is 2.31 ± 1.24 h. In addition, the half-life (Sprague-Dawley, plasma, 2 mg/kg, PRX-P5-006 IV 2 mg/kg, mean, read-out: T1/2 of PRX-P5-006 (converted)) was 6.3 ± 3.79 h.
